According to patent publication EP3231799A1, “4-(AZETIDIN-1-YL)PYRIMIDINE DERIVATIVES WITH ANTI-MITOTIC AND ANTI-PROLIFERATIVE ACTIVITY” (Universität Basel, priority 2016, dated 2017):
Read-outs that look alike come from different tables or passages of the source.

Tested on: A2058 melanoma cells
Assay: Mitotic arrest (microtubule binding) in A2058 melanoma cells, high-content microscopy
Type: cell-based
Conditions: Homo sapiens, inhibitors 1 - 0.008 µM for 24 hours, mean value of at least four experiments
Protocol: Microtubule binding of compounds of formula (I) was determined in A2058 melanoma cells measuring mitotic arrest in high-throughput, high-content microscopic approaches. Microtubule networks or their depolymerization were visualized in parallel. Cellular tests are beneficial to address the biological question of tubulin binding, but also indirectly measure the uptake of a compound by cells. A hallmark of microtubule modifying agents (stabilizing or de-stabilizing) is a mitotic arrest cell cycle arrest of dividing cells, which was measured using the following protocol: • Cell preparation: 5000 A2058 cells were seeded in 100 µl complete DMEM into 96-well plates (Cell Carrier, Perkin Elmer) the day before inhibitor treatment. Cells were exposed to inhibitors (ranging from 1 - 0.008 µM) for 24 hours and fixed by addition of half a volume 10% PFA in PBS (30 min., RT). Cells were permeabilized and stained with Hoechst33324 by addition of 1:10 volume of 1%BSA/1% Triton X-100, 10 µM Hoechst33324 in PBS (30 min., RT), followed by a first image acquisition. Subsequently cells were additionally stained with rabbit anti pSer^10 Histone H3 (Cell Signaling Technologies) and rat anti-α-tubulin (Santa Cruz Technologies, overnight, 4 °C, shaking). Cells were washed and incubated with Alexa 488 conjugated goat anti rat IgG, Alexa 647 conjugated goat anti rabbit IgG antibodies (Life Technologies) and 1 µM Hoechst33324 in 1% BSA/0.1% Triton X-100/1x PBS (shaking; RT; dark), followed by 3 wash cycles and a 2nd round of imaging. • Image acquisition: Fluorescent microscopy images were acquired on an Operetta high content analysis system (Perkin Elmer). 35 fields of view/well were acquired as wide field images (20xWD objective). 1st acquisition: Nuclear DNA content and DNA morphology was imaged using the DAPI filter set. 2nd acquisition: Nuclear DNA, phosphorylated Histone H3 and α-tubulin images were acquired using DAPI, Alexa488 and Alexa647 filter sets. • Image analysis: Images were batch analysed using Columbus software (PerkinElmer). Analyses were run including single cell analysis mode. The total number of nuclei was determined in the DAPI channel. Nuclear DNA was classified into "normal" or "condensed" using a linear classifier mode. The percentage of cells with condensed DNA was calculated for each well (% condensed = (# condensed/ # total) *100). The fraction of cells with pSer10 Histone H3 positive nuclei was determined using Hoechst33342 and Alexa647 signals. 1st the nuclei were identified using DNA staining (Hoechst33342; excluding nuclei at image borders). 2nd the identified nuclei were classified positive or negative for pSer10 Histone H3 by two filters using the "filter by properties" mode based on Alexa 647 intensities. Alexa 647 filter properties were i) mean intensities above threshold /nucleus and ii) a maximum intensity above threshold. Calculation: % Alexa 647^positive = (# Alexa 647^positive / # selected nuclei) *100.
The percentage of cells with condensed DNA and the percentage of pSer10 Histone H3 positive nuclei were blotted as function of inhibitor concentration (log scale) using GraphPad Prism. Half maximal effective concentrations (EC50) of inhibitors were determined using GraphPad's "non-linear regression with variable slope" formula (Y=Bottom + (Top-Bottom)/(1+10^((LogEC50-X)*HillSlope))). Table 1: Effect of selected formula (I) compounds on mitotic arrest in A2058 cells. Half-maximal effective concentrations are given as mean value of at least four experiments for the indicated cellular phenotypes.

[1] = percentage of cells with condensed DNA, read-out: Half-maximal effective concentrations (EC50), Condensed DNA
[2] = percentage of pSer10 Histone H3 positive nuclei, read-out: Half-maximal effective concentrations (EC50), pSer10 Histone H3

Structure (SMILES) | EC50 [1] [nM] | EC50 [2] [nM]
Nc1ncc(-c2cc(N3CC(F)(F)C3)nc(N3CCOCC3)n2)c(C(F)(F)F)n1 [Compound 8, 6-(3,3-difluoroazetidin-1-yl)-2-morpholino-4'-(trifluoromethyl)-[4,5'-bipyrimidin]-2'-amine] | 70 | 73
C[C@@H]1COCCN1c1nc(-c2cnc(N)cc2C(F)(F)F)cc(N2CC(F)(F)C2)n1 [Compound 16, (R)-5-(6-(3,3-difluoroazetidin-1-yl)-2-(3-methylmorpholino)pyrimidin-4-yl)-4-(trifluoromethyl)pyridin-2-amine] | 111 | 115
Nc1cc(C(F)(F)F)c(-c2cc(N3CC(F)(F)C3)nc(N3CCC(O)CC3)n2)cn1 [Compound 40, 1-(4-(6-amino-4-(trifluoromethyl)pyridin-3-yl)-6-(3,3-difluoroazetidin-1-yl)pyrimidin-2-yl)piperidin-4-ol] | 128 | 135
Nc1cc(C(F)(F)F)c(-c2cc(N3CC(F)(F)C3)nc(N3CCC(=O)CC3)n2)cn1 [Compound 76, 1-(4-(6-amino-4-(trifluoromethyl)pyridin-3-yl)-6-(3,3-difluoroazetidin-1-yl)pyrimidin-2-yl)piperidin-4-one] | 129 | 127

Further lines, results first:

EC50 [1] [nM] | EC50 [2] [nM] | Structure (SMILES)
79 | 80 | Nc1cc(C(F)(F)F)c(-c2cc(N3CCC3)nc(N3CCOCC3)n2)cn1 [Compound 1, 5-(6-(azetidin-1-yl)-2-morpholinopyrimidin-4-yl)-4-(trifluoromethyl)pyridin-2-amine]
71 | 151 | Nc1cc(C(F)(F)F)c(-c2cc(N3CC(F)C3)nc(N3CCOCC3)n2)cn1 [Compound 2, 5-(6-(3-fluoroazetidin-1-yl)-2-morpholinopyrimidin-4-yl)-4-(trifluoromethyl)pyridin-2-amine]
92 |  | CC1CN(c2cc(-c3cnc(N)cc3C(F)(F)F)nc(N3CCOCC3)n2)C1 [Compound 3, 5-(6-(3-methylazetidin-1-yl)-2-morpholinopyrimidin-4-yl)-4-(trifluoromethyl)pyridin-2-amine]
65 | 79 | Nc1cc(C(F)(F)F)c(-c2cc(N3CC(F)(F)C3)nc(N3CCOCC3)n2)cn1 [Compound 4, 5-(6-(3,3-difluoroazetidin-1-yl)-2-morpholinopyrimidin-4-yl)-4-(trifluoromethyl)pyridin-2-amine]
